Laboratory results: publication PMC12746157, “Light-Regulated Agonists Spatiotemporally Activating the Vitamin D Receptor Mitigate Psoriasis-like Inflammation in Mice without Inducing Hypercalcemia” (ACS Central Science, 2025)

Tests used:
[1] = Proportions of cis and trans at the photostationary state in DMSO from absorbance spectra (Ernst Fischer method); type: physicochemical
Method: 2. Photochemical characterization.
A 50 µM solution of each compound in DMSO was dispensed into a transparent 96-well plate (200 µL per well). The absorption spectra were recorded from 300 to 600 nm with 2 nm fixed intervals using a Tecan Spark 20M Multimode microplate reader. Initial measurements were performed in the dark, followed by spectra acquired immediately after each 3 min period of light irradiation at different wavelengths using 96-well LED array plates (LEDA Teleopto). Theoretical absorbance spectra corresponding to the pure cis isomer (100%) of each compound were calculated in order to obtain the theoretical percentage of cis isomer at each wavelength, according to the method described by Ernst Fischer (1967). […]
Table S6. Proportions of cis and trans at the photostationary state in DMSO. […]

VDR = VDR (Homo sapiens, UniProt P11473); assay: Luminescent proximity homogeneous assay (AlphaScreen): interaction of purified VDR, RxR and TRAP220 coactivator fragment; type: biochemical; details: for EC50: n >= 3, read-out: Activity (pEC50) (converted)
VDR, sequence (P11473 whole entry, the tested form may be a part): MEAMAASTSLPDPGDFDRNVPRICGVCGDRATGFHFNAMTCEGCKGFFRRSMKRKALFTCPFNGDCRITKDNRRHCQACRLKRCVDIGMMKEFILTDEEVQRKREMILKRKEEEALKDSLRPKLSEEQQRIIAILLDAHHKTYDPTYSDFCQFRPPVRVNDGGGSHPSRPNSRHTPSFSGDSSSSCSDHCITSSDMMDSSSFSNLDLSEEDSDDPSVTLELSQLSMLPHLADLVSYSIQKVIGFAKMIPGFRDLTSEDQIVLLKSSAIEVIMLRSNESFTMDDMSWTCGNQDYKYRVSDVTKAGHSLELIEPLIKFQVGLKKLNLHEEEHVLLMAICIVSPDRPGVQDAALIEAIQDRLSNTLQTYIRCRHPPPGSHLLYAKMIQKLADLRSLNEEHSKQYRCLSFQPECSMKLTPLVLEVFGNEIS
VDR, sequence (P19793 whole entry partner, the tested form may be a part): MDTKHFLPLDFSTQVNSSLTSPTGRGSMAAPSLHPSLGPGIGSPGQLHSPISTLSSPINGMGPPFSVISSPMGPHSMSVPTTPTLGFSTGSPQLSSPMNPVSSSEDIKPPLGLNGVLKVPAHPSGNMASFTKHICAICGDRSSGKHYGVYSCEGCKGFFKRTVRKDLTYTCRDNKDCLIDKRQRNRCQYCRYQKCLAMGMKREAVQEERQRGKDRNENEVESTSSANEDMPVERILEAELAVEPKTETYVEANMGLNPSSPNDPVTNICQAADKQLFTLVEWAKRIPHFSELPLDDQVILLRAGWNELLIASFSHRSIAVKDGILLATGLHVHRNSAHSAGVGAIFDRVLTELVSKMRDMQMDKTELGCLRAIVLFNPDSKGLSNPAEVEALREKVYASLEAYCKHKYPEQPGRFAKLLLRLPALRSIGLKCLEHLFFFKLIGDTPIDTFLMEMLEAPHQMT
VDR, sequence (Q15648 whole entry partner, the tested form may be a part): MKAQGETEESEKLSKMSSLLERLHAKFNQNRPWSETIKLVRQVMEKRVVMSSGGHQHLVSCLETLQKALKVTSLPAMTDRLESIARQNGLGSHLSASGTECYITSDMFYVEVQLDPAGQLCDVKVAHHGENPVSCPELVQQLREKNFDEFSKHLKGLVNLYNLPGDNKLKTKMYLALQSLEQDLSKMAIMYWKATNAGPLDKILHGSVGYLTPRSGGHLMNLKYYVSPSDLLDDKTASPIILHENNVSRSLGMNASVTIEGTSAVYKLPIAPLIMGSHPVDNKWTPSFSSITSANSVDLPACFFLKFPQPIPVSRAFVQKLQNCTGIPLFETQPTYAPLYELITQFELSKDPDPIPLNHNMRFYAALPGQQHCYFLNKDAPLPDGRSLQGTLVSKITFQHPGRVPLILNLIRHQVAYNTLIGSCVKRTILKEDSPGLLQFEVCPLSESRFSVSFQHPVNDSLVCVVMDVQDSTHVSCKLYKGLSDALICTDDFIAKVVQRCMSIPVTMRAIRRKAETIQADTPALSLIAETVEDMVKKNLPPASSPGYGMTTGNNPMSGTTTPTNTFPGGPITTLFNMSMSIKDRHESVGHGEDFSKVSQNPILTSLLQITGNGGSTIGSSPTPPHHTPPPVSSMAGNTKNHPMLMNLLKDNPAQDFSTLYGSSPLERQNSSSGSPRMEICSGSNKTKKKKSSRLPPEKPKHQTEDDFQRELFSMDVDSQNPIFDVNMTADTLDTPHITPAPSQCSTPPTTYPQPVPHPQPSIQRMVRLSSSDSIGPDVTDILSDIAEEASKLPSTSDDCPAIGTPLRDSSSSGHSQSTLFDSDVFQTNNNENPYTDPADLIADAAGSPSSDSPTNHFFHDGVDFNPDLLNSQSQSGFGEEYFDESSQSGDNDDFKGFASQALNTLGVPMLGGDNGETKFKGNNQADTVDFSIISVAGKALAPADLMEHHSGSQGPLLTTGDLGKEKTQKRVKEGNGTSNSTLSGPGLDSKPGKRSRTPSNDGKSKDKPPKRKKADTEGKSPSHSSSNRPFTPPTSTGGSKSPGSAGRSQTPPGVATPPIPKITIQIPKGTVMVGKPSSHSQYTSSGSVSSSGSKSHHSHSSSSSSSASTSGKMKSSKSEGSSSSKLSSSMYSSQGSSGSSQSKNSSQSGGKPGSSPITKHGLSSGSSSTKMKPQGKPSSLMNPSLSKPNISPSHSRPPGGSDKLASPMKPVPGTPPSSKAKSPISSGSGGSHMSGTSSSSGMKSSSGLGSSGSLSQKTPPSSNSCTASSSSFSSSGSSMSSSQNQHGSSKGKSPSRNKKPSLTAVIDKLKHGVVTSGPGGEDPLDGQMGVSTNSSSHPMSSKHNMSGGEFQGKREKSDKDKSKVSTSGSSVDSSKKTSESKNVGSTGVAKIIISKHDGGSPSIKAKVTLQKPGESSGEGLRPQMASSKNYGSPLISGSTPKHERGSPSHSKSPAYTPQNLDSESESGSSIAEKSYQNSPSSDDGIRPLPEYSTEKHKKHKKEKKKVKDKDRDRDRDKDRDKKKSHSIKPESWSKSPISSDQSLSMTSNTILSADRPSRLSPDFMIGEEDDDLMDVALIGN
Method: The activity of all molecules was evaluated using a luminescent proximity homogeneous assay to study interactions between purified VDR, RxR and a fragment of the transcriptional coactivator TRAP220 (Supporting Information). This method allowed us to monitor the interaction between TRAP220 and the activated VDR-RxR heterodimer, which is of mechanistic and physiological significance. Both the activation of VDR and the VDR-RxR heterodimer formation are necessary to promote the whole complex association. This system efficiently includes conformational events of the receptor upon activation that go beyond a simple binding measurement. […]
The activity of all molecules was evaluated using an in-vitro luminescent proximity homogeneous assay by using the Alphascreen technology (Cat No. 6760619R, Perkin Elmer, now Revvity). In a transparent 96-well preplate, 10X concentrations of the compounds were prepared in assay buffer (0.1% bovine serum albumin, 2 mM 1,4-dithiothreitol, 25 mM HEPES and 100 mM NaCl; pH 7.3). LSN2148936 was used as positive control. Purified histidine-tagged VDR (44 µM), flag-RxRa (5.7 µM), biotin tagged TRAP220 transcriptional coactivator (500 µM), and the donor and acceptor beads from the AlphaScreen kit (2 µL/mL each), were diluted in assay buffer. In the dark, 6 µL/well of each test compound were pipetted on a white, shallow 96-well ProxiPlateTM […]
(Perkin Elmer, now Revvity, Cat.No. 6006290) in duplicate. Immediately, 54 µL of the protein solution were added and the plate was covered and incubated for 30 min at room temperature in the dark. Meanwhile, the plate with the 10X dilutions was illuminated at 365 nm for 3 min in a 96-well DED array plate (LEDA Teleopto), to allow the photoconversion of the molecules to their cis configuration. The illuminated compounds were mixed with the protein solution and incubated as described above for the plate in the dark. After the incubation time, the counts of both, the dark and illuminated plates, were measured in a Tecan Spark 20M Multimode plate reader with defined settings (excitation: 680 nm, emission: 520-620 nm, excitation time: 100ms, integration time: 300 ms). Biotinylated-His6 peptide (PerkinElmer) was used as a quality control reagent for AlphaScreen® assays and to evaluate compound interaction with the method. The raw data were normalized to the effect of the buffer (0%) and the maximum response obtained with LSN2148936 (100%). Dose-response curves and EC50 values were calculated with Graphpad software. Each experiment was performed in triplicate, with 2 replicates per plate.
4. Hydrogen/deuterium exchange coupled to mass spectrometry (HDX-MS)
The HDX-MS experiments were performed with an in-house automated modular system interfaced with an Orbitrap Exploris 480 mass spectrometer.1 Two inter-day experiments were conducted: one in the dark (first day) and one illuminated with 365 nm light (second day). Sample preparation and on-exchange reactions were performed on opaque plates (VWR® Real-Time […]
mm, Part Nº BC5226) light source was positioned above the Tecan system used for sample preparation. The distance between the UV light and the opaque plates was 80 cm. The 365 nm light illuminated the sample preparation process and the on-exchange reaction on the second day.
A 10 µM VDR-LBD protein stock solution was prepared in 20 mM HEPES buffer (with 150 mM NaCl, 10 mM D-L Methionine and 5 mM DTT) at pH 7.5. The compound 11b was prepared at 10 mM in DMSO. The protein: compound-complex (1:10 molar ratio) was pre-incubated for 1h before the first on-exchange reaction. The HDX reaction was initiated by a 5-fold dilution of the protein stock solution, in the presence and absence of compound 11b, in the corresponding Deuterated buffer at room temperature. Samples were prepared in parallel with three replicates of […]
time point, HDX reactions were quenched with a solution of 3 M Urea and 1% TFA (pH 2.5) followed by online proteolysis with an in-house Pepsin immobilized column and desalting […]

[2] = after illumination (365 nm) for 3 min, mean ± SEM
[3] = after illumination (365 nm) for 3 min, normalized to maximum response of LSN2148936 (100%), mean ± SEM

Row | %cis at the photostationary state ([1]; 365 nm) | %trans at the photostationary state ([1]; 365 nm) | %cis at the photostationary state ([1]; 380 nm) | %trans at the photostationary state ([1]; 380 nm) | %cis at the photostationary state ([1]; 405 nm) | %trans at the photostationary state ([1]; 405 nm) | %cis at the photostationary state ([1]; 420 nm) | %trans at the photostationary state ([1]; 420 nm) | %cis at the photostationary state ([1]; 470 nm) | %trans at the photostationary state ([1]; 470 nm) | %cis at the photostationary state ([1]; 500 nm) | %trans at the photostationary state ([1]; 500 nm) | %cis at the photostationary state ([1]; 530 nm) | %trans at the photostationary state ([1]; 530 nm) | EC50 (VDR; [2]) | Emax (VDR; [3]) | Compound | %cis at the photostationary state ([1]; 420 nm, listed as PhotoVDRM) | Activity (Emax) (VDR; after illumination (365 nm) for 3 min, normalized to maximum response of LSN2148936 (100%), mean ± SEM, listed as 11b (PhotoVDRM)) | Activity in the dark (VDR; dark (trans), concentrations up to 10 μM) | antagonist activity (VDR; several concentrations with LSN2148936 at 300nM, dark or 365 nm)
1 | 96,19% | 3,81% | 95,15% | 4,85% | 62,30% | 37,70% | 59,96% | 40,04% | 29,61% | 70,39% | 25,15% | 74,85% | 19,72% | 80,28% | 0.794 µM | 44 ± 5.37% | Cc1cc(OCC(O)C(C)(C)C)ccc1/N=N/c1cccc(-c2ccc(CO)cc2)c1 (stereo not shown) [Compound 12b] | – | – | – | –
2 | 96,79% | 3,21% | 95,58% | 4,42% | 61,42% | 38,58% | 54,69% | 45,31% | 28,11% | 71,89% | 29,74% | 70,26% | 25,59% | 74,41% | 0.209 µM | 93 ± 6.73% | Cc1cc(OCC(O)C(C)(C)C)ccc1/N=N/c1cccc(-c2ccc(C(=O)O)cc2C)c1 (stereo not shown) [Compound 11d] | – | – | – | –

The remaining lines, values behind:

Row | Compound | %cis at the photostationary state ([1]; 365 nm) | %trans at the photostationary state ([1]; 365 nm) | %cis at the photostationary state ([1]; 380 nm) | %trans at the photostationary state ([1]; 380 nm) | %cis at the photostationary state ([1]; 405 nm) | %trans at the photostationary state ([1]; 405 nm) | %cis at the photostationary state ([1]; 420 nm) | %trans at the photostationary state ([1]; 420 nm) | %cis at the photostationary state ([1]; 470 nm) | %trans at the photostationary state ([1]; 470 nm) | %cis at the photostationary state ([1]; 500 nm) | %trans at the photostationary state ([1]; 500 nm) | %cis at the photostationary state ([1]; 530 nm) | %trans at the photostationary state ([1]; 530 nm) | EC50 (VDR; [2]) | Emax (VDR; [3]) | %cis at the photostationary state ([1]; 420 nm, listed as PhotoVDRM) | Activity (Emax) (VDR; after illumination (365 nm) for 3 min, normalized to maximum response of LSN2148936 (100%), mean ± SEM, listed as 11b (PhotoVDRM)) | Activity in the dark (VDR; dark (trans), concentrations up to 10 μM) | antagonist activity (VDR; several concentrations with LSN2148936 at 300nM, dark or 365 nm)
3 | COC(=O)c1ccc(-c2cccc(/N=N/c3ccc(OCC(O)C(C)(C)C)cc3C)c2)c(C)c1 (stereo not shown) [Compound 10d] | 96,30% | 3,70% | 95,32% | 4,68% | 62,22% | 37,78% | 59,99% | 40,01% | 29,82% | 70,18% | 25,21% | 74,79% | 20,03% | 79,97% | 0.813 µM | 30 ± 1.71% | – | – | – | –
4 | Cc1cc(OCC(O)C(C)(C)C)ccc1N=Nc1cccc(-c2ccc(C(=O)O)cc2)c1 (stereo not shown) [Compound 11b] | 96,87% | 3,13% | 95,62% | 4,38% | 63,64% | 36,36% | 60,47% | 39,53% | 31,30% | 68,70% | 32,81% | 67,19% | 29,14% | 70,86% | 0.0589 µM | > 80% | up to 60% | 84 ± 2.62% | inactive | does no act as antagonist
5 | COC(=O)c1ccc(-c2cccc(/N=N/c3ccc(OCC(O)C(C)(C)C)c(C)c3)c2)cc1 (stereo not shown) [Compound 10a] | 93,70% | 6,30% | 91,83% | 8,17% | 60,42% | 39,58% | 58,05% | 41,95% | 29,15% | 70,85% | 25,54% | 74,46% | 20,56% | 79,44% | 1.1 µM | 23 ± 2.65% | – | – | – | –
6 | COC(=O)c1ccc(-c2cccc(/N=N/c3ccc(OCC(O)C(C)(C)C)cc3C)c2)cc1 (stereo not shown) [Compound 10b] | 97,26% | 2,74% | 96,48% | 3,52% | 66,00% | 34,00% | 62,72% | 37,28% | 34,89% | 65,11% | 35,65% | 64,35% | 31,97% | 68,03% | 0.1 µM | 44 ± 0.66% | – | – | – | –
